In publication PMC4970318 (Journal of molecular biology, 2014):
Peptide text beside a SMILES is read from it. * marks the point of attachment. FITC = O=C1OC2(c3ccc(O)cc3Oc3cc(O)ccc32)c2ccc(NC(=S)*)cc21; Ahx = NCCCCCC(=O)O

How the values were obtained:
[1] = target: N2P2 (NHERF-2 PDZ2) (Homo sapiens, UniProt Q15599); test: biochemical
[2] = target: M3P6m (I71V mutant of M3P6) (Homo sapiens, UniProt Q5TCQ9, I1085V); format: binding
[3] = target: M3P6 (MAGI-3 PDZ6) (Homo sapiens, UniProt Q5TCQ9); format: binding; settings: for selectivity for M3P6 over N2P2: ratio of Ki values of Table 1; for shift in selectivity towards M3P6: relative to the native peptide, M3P6 vs N2P2
Chain of M3P6 (MAGI-3 PDZ6) (Q5TCQ9 1040-1149 isoform Q5TCQ9-2): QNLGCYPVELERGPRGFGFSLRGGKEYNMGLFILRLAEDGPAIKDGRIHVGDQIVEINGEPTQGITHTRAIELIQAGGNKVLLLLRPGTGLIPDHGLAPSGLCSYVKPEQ

Chain of M3P6m (I71V mutant of M3P6) (Q5TCQ9 1040-1149 isoform Q5TCQ9-2 I1110V): as the sequence (Q5TCQ9 1040-1149 isoform Q5TCQ9-2) above, with I71V counted along it
Chain of N2P2 (NHERF-2 PDZ2) (Q15599 143-280): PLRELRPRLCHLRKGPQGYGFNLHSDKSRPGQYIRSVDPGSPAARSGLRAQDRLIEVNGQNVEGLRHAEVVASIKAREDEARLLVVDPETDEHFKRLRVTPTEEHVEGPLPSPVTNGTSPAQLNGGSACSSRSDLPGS

Compound | Ki [2] | Ki [3] | also measured
C[C@@H](O)[C@H](NC(=O)[C@H](CO)NC(=O)CNC(=O)[C@H](CO)NC(=O)CNC(=O)CNC(=O)CCCCCNC(=S)Nc1ccc2c(c1)C(=O)OC21c2ccc(O)cc2Oc2cc(O)ccc21)C(=O)N[C@@H](CCCNC(=N)N)C(=O)N[C@@H](Cc1ccccc1)C(=O)O [FD2 8-mer, FITC-Ahx-GGSGSTRF] ({FITC-Ahx}-GGSGSTRF-OH) |  |  | Kd [1]: 3.6 ± 0.5 µM
CSCC[C@H](NC(=O)[C@@H](N)CC(C)C)C(=O)N[C@@H](CC(=O)O)C(=O)N[C@@H](CO)C(=O)N[C@H](C(=O)N[C@@H](CC(C)C)C(=O)O)[C@@H](C)O [LPA2 6-mer, LMDSTL, reference compound] (H-LMDSTL-OH) | 67.7 ± 5.4 µM | 47.4 ± 2.6 µM | 
CC(C)[C@H](NC(=O)[C@H](Cc1c[nH]c2ccccc12)NC(=O)[C@@H](NC(=O)[C@H](CCC(=O)O)NC(=O)[C@H](Cc1ccccc1)NC(=O)CN)[C@@H](C)O)C(=O)O [RD2, GFETWV] (H-GFETWV-OH) |  | 2.7 ± 0.4 µM | selectivity for M3P6 over N2P2 [3]: 4.6 fold; shift in selectivity towards M3P6 [3]: 8 fold
C[C@@H](O)[C@H](NC(=O)[C@H](CO)NC(=O)CNC(=O)[C@@H](N)CO)C(=O)N[C@@H](Cc1c[nH]cn1)C(=O)N[C@@H](Cc1ccccc1)C(=O)O [FD3, SGSTHF] (H-SGSTHF-OH) |  | > 1000 µM | 
CC(C)[C@H](NC(=O)[C@H](Cc1c[nH]c2ccccc12)NC(=O)[C@@H](NC(=O)[C@H](CC(=O)O)NC(=O)[C@H](Cc1ccccc1)NC(=O)CN)[C@@H](C)O)C(=O)O [RD3, GFDTWV] (H-GFDTWV-OH) |  | 6.8 ± 1.5 µM | 
CC(C)[C@H](NC(=O)[C@H](Cc1c[nH]c2ccccc12)NC(=O)[C@@H](NC(=O)[C@H](CCC(=O)O)NC(=O)[C@H](Cc1ccccc1)NC(=O)[C@@H](N)CC(=O)O)[C@@H](C)O)C(=O)O [RD1, DFETWV] (H-DFETWV-OH) |  | 1.8 ± 0.5 µM | selectivity for M3P6 over N2P2 [3]: 3 fold; shift in selectivity towards M3P6 [3]: 5 fold

Continued, in another order:

Ki [2] | Ki [3] | Compound | also measured
242 ± 17.6 µM |  | CC(C)[C@H](NC(=O)[C@@H](NC(=O)[C@@H](NC(=O)[C@H](CO)NC(=O)[C@H](Cc1ccccc1)NC(=O)[C@@H](N)CC(=O)O)[C@@H](C)O)[C@@H](C)O)C(=O)O [CST, DFSTTV] (H-DFSTTV-OH) | 
151 ± 15.9 µM | 600 ± 300 µM | C[C@@H](O)[C@H](N)C(=O)NCC(=O)N[C@@H](CCC(=O)O)C(=O)N[C@H](C(=O)N[C@H](C(=O)N[C@@H](Cc1ccccc1)C(=O)O)[C@@H](C)O)[C@@H](C)O [FD1, TGETTF] (H-TGETTF-OH) | 
510 ± 51.4 µM |  | CC(C)[C@H](NC(=O)[C@H](CCCNC(=N)N)NC(=O)[C@@H](NC(=O)[C@H](CO)NC(=O)[C@H](Cc1ccccc1)NC(=O)[C@@H](N)CC(=O)O)[C@@H](C)O)C(=O)O [CSR, DFSTRV] (H-DFSTRV-OH) | 
285 ± 24.5 µM |  | CC(C)[C@H](NC(=O)[C@H](CCCNC(=N)N)NC(=O)[C@@H](NC(=O)[C@H](C)NC(=O)[C@H](Cc1ccccc1)NC(=O)[C@@H](N)CC(=O)O)[C@@H](C)O)C(=O)O [CAR, DFATRV] (H-DFATRV-OH) | 
351 ± 17.9 µM |  | CC(C)[C@H](NC(=O)[C@@H](NC(=O)[C@@H](NC(=O)[C@H](C)NC(=O)[C@H](Cc1ccccc1)NC(=O)[C@@H](N)CC(=O)O)[C@@H](C)O)[C@@H](C)O)C(=O)O [CAT, DFATTV] (H-DFATTV-OH) | 
